# In patent publication US20230092890A1, “1, 3, 4-Oxadiazole derivative compounds as histone deacetylase 6 inhibitor, and the pharmaceutical composition comprising the same” (Chong Kun Dang Pharmaceutical Corp., priority 2019, published 2023):
# How the values were obtained:
# HDAC6 human recombinant = molecular target: T1, HDAC6 human recombinant (Homo sapiens, UniProt Q9UBN7); experiment: HDAC enzyme activity inhibition (in vitro), HDAC6 assay; assay type: biochemical; conditions: samples at 0.1, 1, 10, 100 and 1000 nM; 37° C. 60 minutes; fluorescence Ex 390, Em 460; read-out: HDAC6 IC50
# T1 construct: purchased Calbiochem 382180
# T1 sequence (Q9UBN7 1-1215): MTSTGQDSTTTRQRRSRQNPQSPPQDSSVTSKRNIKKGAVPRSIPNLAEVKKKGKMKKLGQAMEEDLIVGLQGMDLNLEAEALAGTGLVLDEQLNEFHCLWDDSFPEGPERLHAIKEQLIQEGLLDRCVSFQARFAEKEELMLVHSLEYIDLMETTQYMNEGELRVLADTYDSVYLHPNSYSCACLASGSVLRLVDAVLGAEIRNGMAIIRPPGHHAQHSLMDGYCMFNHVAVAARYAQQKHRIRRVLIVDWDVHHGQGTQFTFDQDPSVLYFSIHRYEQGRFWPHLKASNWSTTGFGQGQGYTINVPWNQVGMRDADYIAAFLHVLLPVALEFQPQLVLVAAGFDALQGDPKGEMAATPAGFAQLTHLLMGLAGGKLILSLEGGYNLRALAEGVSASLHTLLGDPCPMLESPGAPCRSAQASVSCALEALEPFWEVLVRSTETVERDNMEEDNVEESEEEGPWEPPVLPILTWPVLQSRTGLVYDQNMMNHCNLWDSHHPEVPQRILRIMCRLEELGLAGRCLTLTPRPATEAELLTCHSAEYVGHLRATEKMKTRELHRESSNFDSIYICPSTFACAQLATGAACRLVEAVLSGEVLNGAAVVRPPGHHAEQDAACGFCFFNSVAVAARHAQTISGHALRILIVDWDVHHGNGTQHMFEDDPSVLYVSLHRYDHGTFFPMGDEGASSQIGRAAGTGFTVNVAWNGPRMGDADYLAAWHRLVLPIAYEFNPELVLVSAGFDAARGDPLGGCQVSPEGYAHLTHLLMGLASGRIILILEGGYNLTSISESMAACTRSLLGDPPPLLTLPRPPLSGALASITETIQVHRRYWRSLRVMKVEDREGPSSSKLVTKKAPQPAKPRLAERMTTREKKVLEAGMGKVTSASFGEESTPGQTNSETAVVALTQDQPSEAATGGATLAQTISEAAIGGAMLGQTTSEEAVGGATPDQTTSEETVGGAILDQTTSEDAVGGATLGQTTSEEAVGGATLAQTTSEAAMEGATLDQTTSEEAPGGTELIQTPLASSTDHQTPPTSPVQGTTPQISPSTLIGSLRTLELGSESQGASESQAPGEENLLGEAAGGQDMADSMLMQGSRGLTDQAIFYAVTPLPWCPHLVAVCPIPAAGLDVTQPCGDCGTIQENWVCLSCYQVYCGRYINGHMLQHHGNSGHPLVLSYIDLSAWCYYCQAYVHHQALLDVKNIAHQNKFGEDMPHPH
# Outline: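 Fluorescence (Ex 390, Em 460) read after a 37° C, 60 min enzyme reaction and a further 30 min developer step at 37° C. Uses recombinant human HDAC6; HDAC1 arm dosed at 100, 1000, 10000 nM.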
# HDAC1 = molecular target: T2, HDAC1 (Homo sapiens, UniProt Q13547); experiment: HDAC enzyme activity inhibition (in vitro), HDAC1 Fluorimetric Drug Discovery Assay Kit; assay type: biochemical; conditions: samples at 100, 1000 and 10000 nM; 37° C. 60 minutes; fluorescence Ex 390, Em 460; read-out: HDAC1 IC50
# T2 construct: purchased Enzolifesciences BML-AK511
# Outline: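 Fluorimetric read-out (Ex 390, Em 460) after a 60 min 37° C enzyme reaction and 30 min 37° C developer step. Tested levels: 0.1-1000 nM (0.1, 1, 10, 100, 1000) on recombinant human HDAC6; 100, 1000 and 10000 nM on HDAC1 kit enzyme.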
# T2 sequence (Q13547 whole entry): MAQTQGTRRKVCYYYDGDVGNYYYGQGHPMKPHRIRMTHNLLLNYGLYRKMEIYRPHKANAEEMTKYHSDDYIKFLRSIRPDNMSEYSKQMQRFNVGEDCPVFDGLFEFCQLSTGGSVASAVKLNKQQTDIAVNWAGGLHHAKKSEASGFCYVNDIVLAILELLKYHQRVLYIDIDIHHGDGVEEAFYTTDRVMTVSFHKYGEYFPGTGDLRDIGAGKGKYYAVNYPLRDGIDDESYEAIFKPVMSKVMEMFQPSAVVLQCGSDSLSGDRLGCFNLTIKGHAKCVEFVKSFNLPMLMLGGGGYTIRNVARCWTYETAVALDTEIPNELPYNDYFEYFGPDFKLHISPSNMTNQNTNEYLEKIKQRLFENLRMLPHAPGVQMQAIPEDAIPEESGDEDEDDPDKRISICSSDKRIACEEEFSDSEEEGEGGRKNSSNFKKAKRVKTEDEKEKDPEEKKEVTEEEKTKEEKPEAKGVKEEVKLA
SMILES,IC50 (HDAC6 human recombinant) [nM],IC50 (HDAC1) [nM]
"Cn1c(=O)n(Cc2ccc(-c3nnc(C(F)F)o3)cc2F)c2cc(-c3cccnc3)ccc21 [Compound 110, 3-(4-(5-(difluoromethyl)-1,3,4-oxadiazole-2-yl)-2-fluorobenzyl)-1-methyl-5-(pyridine-3-yl)-1,3-dihydro-2H-benzo[d]imidazole-2-one]",234,> 10000
"O=c1n(Cc2ccc(-c3nnc(C(F)F)o3)cc2)c2ccccc2n1C1CC2(COC2)C1 [Compound 29, 1-(4-(5-(difluoromethyl)-1,3,4-oxadiazole-2-yl)benzyl)-3-(2-oxaspiro[3.3]heptane-6-yl)-1,3-dihydro-2H-benzo[d]imidazole-2-one]",210,> 10000
"COCCC(=O)N1CCC(n2c(=O)n(Cc3ccc(-c4nnc(C(F)F)o4)cn3)c3cc(F)ccc32)CC1 [Compound 67, 3-((5-(5-(difluoromethyl)-1,3,4-oxadiazole-2-yl)pyridine-2-yl)methyl)-5-fluoro-1-(1-(3-methoxypropanoyl)piperidine-4-yl)-1,3-dihydro-2H-benzo[d]imidazole-2-one]",41,> 10000
"CN1CCC(n2c(=O)n(Cc3ccc(-c4nnc(C(F)F)o4)cc3)c3cc(-c4cccnc4)ccc32)CC1 [Compound 132, 3-(4-(5-(difluoromethyl)-1,3,4-oxadiazole-2-yl)benzyl)-1-(1-methylpiperidine-4-yl)-5-(pyridine-3-yl)-1,3-dihydro-2H-benzo[d]imidazole-2-one]",281,> 10000
"O=c1n(Cc2ccc(-c3nnc(C(F)F)o3)cc2F)c2ccccc2n1C1CCN(Cc2cccc3cc[nH]c23)CC1 [Compound 19, 1-(1-((1H-indole-7-yl)methyl)piperidine-4-yl)-3-(4-(5-(difluoromethyl)-1,3,4-oxadiazole-2-yl)-2-fluorobenzyl)-1,3-dihydro-2H-benzo[d]imidazole-2-one]",2420,> 10000
"CC(=O)N1CCC(c2ccc3c(c2)n(C2CCN(C)CC2)c(=O)n3Cc2ccc(-c3nnc(C(F)F)o3)cn2)CC1 [Compound 197, 5-(1-acetylpiperidine-4-yl)-1-((5-(5-(difluoromethyl)-1,3,4-oxadiazole-2-yl)pyridine-2-yl)methyl)-3-(1-methylpiperidine-4-yl)-1,3-dihydro-2H-benzo[d]imidazole-2-one]",235,> 10000
"O=c1n(Cc2ccc(-c3nnc(C(F)F)o3)cn2)c2cc(F)c(N3CCN(C4CCC4)CC3)cc2n1C1COC1 [Compound 320, 5-(4-cyclobutylpiperazine-1-yl)-1-((5-(5-(difluoromethyl)-1,3,4-oxadiazole-2-yl)pyridine-2-yl)methyl)-6-fluoro-3-(oxetan-3-yl)-1,3-dihydro-2H-benzo[d]imidazole-2-one]",41,> 10000
"CN1CCC(n2c(=O)n(Cc3ccc(-c4nnc(C(F)F)o4)cc3F)c3cc(F)c(-c4ccncc4)cc32)CC1 [Compound 118, 1-(4-(5-(difluoromethyl)-1,3,4-oxadiazole-2-yl)-2-fluorobenzyl)-6-fluoro-3-(1-methylpiperidine-4-yl)-5-(pyridine-4-yl)-1,3-dihydro-2H-benzo[d]imidazole-2-one]",42,> 10000
"CN(C)CCn1c(=O)n(Cc2ccc(-c3nnc(C(F)F)o3)cn2)c2cc(F)c(-c3ccncc3)cc21 [Compound 327, 1-((5-(5-(difluoromethyl)-1,3,4-oxadiazole-2-yl)pyridine-2-yl)methyl)-3-(2-(dimethylamino)ethyl)-6-fluoro-5-(pyridine-4-yl)-1,3-dihydro-2H-benzo[d]imidazole-2-one]",58,> 10000
"O=c1n(Cc2ccc(-c3nnc(C(F)F)o3)cn2)c2ccc(F)cc2n1C1CCN(C2CCCCC2)CC1 [Compound 47, 3-(1-cyclohexylpiperidine-4-yl)-1-((5-(5-(difluoromethyl)-1,3,4-oxadiazole-2-yl)pyridine-2-yl)methyl)-5-fluoro-1,3-dihydro-2H-benzo[d]imidazole-2-one]",126,> 10000
"O=c1n(Cc2ccc(-c3nnc(C(F)F)o3)cn2)c2cc(F)c(N3CCN(Cc4cccc5[nH]ccc45)CC3)cc2n1C1COC1 [Compound 322, 5-(4-((1H-indole-4-yl)methyl)piperazine-1-yl)-1-((5-(5-(difluoromethyl)-1,3,4-oxadiazole-2-yl)pyridine-2-yl)methyl)-6-fluoro-3-(oxetan-3-yl)-1,3-dihydro-2H-benzo[d]imidazole-2-one]",29,> 10000

# Further compounds by falling IC50 (HDAC6 human recombinant), results first:
IC50 (HDAC6 human recombinant) [nM],IC50 (HDAC1) [nM],SMILES
29,> 10000,"O=c1n(Cc2ccc(-c3nnc(C(F)F)o3)cn2)c2cc(F)ccc2n1CC1CCN(C2COC2)CC1 [Compound 301, 3-((5-(5-(difluoromethyl)-1,3,4-oxadiazole-2-yl)pyridine-2-yl)methyl)-5-fluoro-1-((1-(oxetan-3-yl)piperidine-4-yl)methyl)-1,3-dihydro-2H-benzo[d]imidazole-2-one]"
26,> 10000,"CN1CCN(c2cc(-c3cc4oc(=O)n(Cc5ccc(-c6nnc(C(F)F)o6)cn5)c4cc3F)ccn2)CC1 [Compound 364, 3-((5-(5-(difluoromethyl)-1,3,4-oxadiazole-2-yl)pyridine-2-yl)methyl)-5-fluoro-6-(2-(4-methylpiperazine-1-yl)pyridine-4-yl)benzo[d]oxazole-2(3H)-one]"
23,> 10000,"O=c1n(Cc2ccc(-c3nnc(C(F)F)o3)cn2)c2cc(Cl)c(Cl)cc2n1C1CCN(C2COC2)CC1 [Compound 82, 5,6-dichloro-1-((5-(5-(difluoromethyl)-1,3,4-oxadiazole-2-yl)pyridine-2-yl)methyl)-3-(1-(oxetan-3-yl)piperidine-4-yl)-1,3-dihydro-2H-benzo[d]imidazole-2-one]"
21,> 10000,"Cn1c(=O)n(Cc2ccc(-c3nnc(C(F)F)o3)cc2F)c2cc(F)c(-c3cccnc3)cc21 [Compound 169, 1-(4-(5-(difluoromethyl)-1,3,4-oxadiazole-2-yl)-2-fluorobenzyl)-6-fluoro-3-methyl-5-(pyridine-3-yl)-1,3-dihydro-2H-benzo[d]imidazole-2-one]"
16,> 10000,"CN1CCC(n2c(=O)n(Cc3ccc(-c4nnc(C(F)F)o4)cn3)c3cc(F)c(-c4ccc(F)cc4F)cc32)CC1 [Compound 223, 1-((5-(5-(difluoromethyl)-1,3,4-oxadiazole-2-yl)pyridine-2-yl)methyl)-5-(2,4-difluorophenyl)-6-fluoro-3-(1-methylpiperidine-4-yl)-1,3-dihydro-2H-benzo[d]imidazole-2-one]"
11,> 10000,"O=c1n(Cc2ccc(-c3nnc(C(F)F)o3)cn2)c2cc(F)c(-c3ccncc3)cc2n1[C@@H]1CCCN(C2COC2)C1 [Compound 294, (R)-1-((5-(5-(difluoromethyl)-1,3,4-oxadiazole-2-yl)pyridine-2-yl)methyl)-6-fluoro-3-(1-(oxetan-3-yl)piperidine-3-yl)-5-(pyridine-4-yl)-1,3-dihydro-2H-benzo[d]imidazole-2-one]"
6,> 10000,"O=c1n(Cc2ccc(-c3nnc(C(F)F)o3)cn2)c2cc(F)c(-c3cn[nH]c3)cc2n1C1CN(C2COC2)C1 [Compound 312, 1-((5-(5-(difluoromethyl)-1,3,4-oxadiazole-2-yl)pyridine-2-yl)methyl)-6-fluoro-3-(1-(oxetan-3-yl)azetidine-3-yl)-5-(1H-pyrazole-4-yl)-1,3-dihydro-2H-benzo[d]imidazole-2-one]"
